This note sets out measurements from PMC3433708, “Structural Basis for Specific Recognition of Substrates by Sapovirus Protease” (Frontiers in Microbiology, 2012).

This test deals with T1, SaV protease (3C-like protease domain of NS6-7, Pro^wt) (Sapovirus Mc10, UniProt Q6XDK8).
T1 construct: gene ORF1; partial ORF1 polyprotein NS6-7-VP1 with functional protease, made by coupled in vitro transcription/translation in rabbit reticulocyte lysate, not purified; protease domain 146 residues; from ORF1 polyprotein of 2278 residues
T1 sequence (Q6XDK8 1056-1201): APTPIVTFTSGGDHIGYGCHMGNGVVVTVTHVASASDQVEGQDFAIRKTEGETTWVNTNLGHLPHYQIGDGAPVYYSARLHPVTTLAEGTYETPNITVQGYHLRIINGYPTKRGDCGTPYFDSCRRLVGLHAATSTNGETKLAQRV
In words: in vitro trans cleavage assay, […]-labelled ORF1 polyprotein (Pro^mut), SDS-PAGE, NS4-NS5 band. The class given is biochemical.

As a reminder, the IC50 is the point on the concentration scale where inhibition reaches its midpoint. Compound `CN(C)c1ccc(/C=C2\CCCC3C2=NN(C(=O)CCC(=O)O)C3c2ccc(N(C)C)cc2)cc1` (stereo not drawn) [compound 50, Compound No.50] came in with an IC50 of 26.5 µM. That is a double-digit micromolar value.

The compound `Cc1cccc(N2CCN(c3ccc(C(=O)O)cc3NS(=O)(=O)c3cc(C)cc(C)c3)CC2C)c1` (stereo not drawn) [compound 100, Compound No.100] showed an IC50 of 18.4 µM.

`Cc1ccc(C)n1C(CC(=O)O)c1ccc(OCc2ccccc2)cc1` (stereo not drawn) [compound 116, Compound No.116] yielded an IC50 of 18.4 µM. This counts as double-digit micromolar.
